≈ marks a conversion by molar mass, not a printed value.
Key:
Format in all cases: cell-based
Details in all cases: cation adjusted Mueller-Hinton broth, 35° C., 16-20 hours
[1] = system: Methicillin-resistant Staphylococcus aureus OC 3726 COL; assay: In vitro antibacterial activity, microdilution broth MIC (NCCLS M7-A4), strain C
Method: (§1) Minimum inhibitory concentration (MIC) is an indicator of in vitro antibacterial activity. […] The in vitro antimicrobial activity of representative compounds of the present invention was determined by the microdilution broth method following the test method from the National Committee for Clinical Laboratory Standards (NCCLS). This method is described in the NCCLS Document M7-A4, Vol. 17, No. 2, “Methods for Dilution Antimicrobial Susceptibility Test for Bacteria that Grow Aerobically—Fourth Edition”, which is incorporated herein by reference.
(§2) In this method two-fold serial dilutions of drug in cation adjusted Mueller-Hinton broth were added to wells in microdilution trays. The test organisms were prepared by adjusting the turbidity of actively growing broth cultures so that the final concentration of test organism after it is added to the wells was approximately 5×10^4 CFU/well. Following inoculation of the microdilution trays, the trays were incubated at 35° C. for 16-20 hours and then read. The amount of growth in the wells containing the test compound was compared with the amount of growth in the growth-control wells (no test compound) used in each tray.

[2] = system: Enterococcus faecium OC 3312 vancomycin-resistant; assay: In vitro antibacterial activity, microdilution broth MIC (NCCLS M7-A4), strain A
Method: as §1, §2

[3] = system: Staphylococcus aureus ATCC 29213; assay: In vitro antibacterial activity, microdilution broth MIC (NCCLS M7-A4), strain B
Method: as §1, §2

[4] = system: Staphylococcus aureus OC4172; assay: In vitro antibacterial activity, microdilution broth MIC (NCCLS M7-A4), strain D
Method: as §1, §2

Row | SMILES | MIC (μg/mL) C Strain [1] | MIC (μg/mL) A Strain [2] [µg/mL] | MIC (μg/mL) B Strain [3] | MIC (μg/mL) D Strain [4]
1 | COC1C=COC2(C)Oc3c(C)c(O)c4c(O)c(c(C=NN5CCN(Cc6cc(-c7ccncc7)no6)CC5)c(O)c4c3C2=O)NC(=O)C(C)=CC=CC(C)C(O)C(C)C(O)C(C)C(OC(C)=O)C1C (stereo not shown) [Compound 15] | ≦0.03 μg/mL | 0.06 (≈ 0.062 µM) | ≦0.03 μg/mL | ≦0.03 μg/mL
2 | COC1C=COC2(C)Oc3c(C)c(O)c4c(O)c(c(C=NN5CCN(Cc6cc(-c7ccc(C)cc7)no6)CC5)c(O)c4c3C2=O)NC(=O)C(C)=CC=CC(C)C(O)C(C)C(O)C(C)C(OC(C)=O)C1C (stereo not shown) [Compound 8] | 0.5 µg/mL (≈ 0.51 µM) | 0.5 (≈ 0.51 µM) | 0.5 µg/mL (≈ 0.51 µM) | 0.5 µg/mL (≈ 0.51 µM)
3 | COC1C=COC2(C)Oc3c(C)c(O)c4c(O)c(c(C=NN5CCN(Cc6onc(-c7ccc(Cl)cc7)c6C(=O)O)CC5)c(O)c4c3C2=O)NC(=O)C(C)=CC=CC(C)C(O)C(C)C(O)C(C)C(OC(C)=O)C1C (stereo not shown) [Compound 19] | 0.5 µg/mL (≈ 0.479 µM) | 4 (≈ 3.83 µM) | 1 µg/mL (≈ 0.957 µM) | 0.5 µg/mL (≈ 0.479 µM)
4 | COC1C=COC2(C)Oc3c(C)c(O)c4c(O)c(c(C=NN5CCN(Cc6cn(-c7ccc(Cl)cc7)nn6)CC5)c(O)c4c3C2=O)NC(=O)C(C)=CC=CC(C)C(O)C(C)C(O)C(C)C(OC(C)=O)C1C (stereo not shown) [Compound 24] | ≦0.12 μg/mL | 0.12 (≈ 0.12 µM) | 0.12 µg/mL (≈ 0.12 µM) | 0.06 µg/mL (≈ 0.06 µM)
5 | COC1C=COC2(C)Oc3c(C)c(O)c4c(O)c(c(C=NN5CCN(Cc6cc(-c7ccc(NC(C)=O)cc7)no6)CC5)c(O)c4c3C2=O)NC(=O)C(C)=CC=CC(C)C(O)C(C)C(O)C(C)C(OC(C)=O)C1C (stereo not shown) [Compound 16] | 0.06 µg/mL (≈ 0.0586 µM) | 0.12 (≈ 0.117 µM) | 0.06 µg/mL (≈ 0.0586 µM) | ≦0.03 μg/mL
6 | COC1C=COC2(C)Oc3c(C)c(O)c4c(O)c(c(C=NN5CCN(Cc6cc(-c7cccc(Cl)c7)no6)CC5)c(O)c4c3C2=O)NC(=O)C(C)=CC=CC(C)C(O)C(C)C(O)C(C)C(OC(C)=O)C1C (stereo not shown) [Compound 3] | 0.5 µg/mL (≈ 0.5 µM) | 0.5 (≈ 0.5 µM) | 0.5 µg/mL (≈ 0.5 µM) | 0.5 µg/mL (≈ 0.5 µM)
7 | COC1C=COC2(C)Oc3c(C)c(O)c4c(O)c(c(C=NN5CCN(Cc6cc(CN(C)C)no6)CC5)c(O)c4c3C2=O)NC(=O)C(C)=CC=CC(C)C(O)C(C)C(O)C(C)C(OC(C)=O)C1C (stereo not shown) [Compound 12] | ≦0.03 μg/mL | 0.12 (≈ 0.127 µM) | 0.06 µg/mL (≈ 0.0634 µM) | ≦0.03 μg/mL
8 | COC1C=COC2(C)Oc3c(C)c(O)c4c(O)c(c(C=NN5CCN(Cc6cc(-c7ccc(Cl)cc7Cl)no6)CC5)c(O)c4c3C2=O)NC(=O)C(C)=CC=CC(C)C(O)C(C)C(O)C(C)C(OC(C)=O)C1C (stereo not shown) [Compound 4] | 0.5 µg/mL (≈ 0.483 µM) | 1 (≈ 0.966 µM) | 1 µg/mL (≈ 0.966 µM) | 1 µg/mL (≈ 0.966 µM)
9 | COC1C=COC2(C)Oc3c(C)c(O)c4c(O)c(c(C=NN5CCN(Cc6cc(-c7ccccc7)no6)CC5)c(O)c4c3C2=O)NC(=O)C(C)=CC=CC(C)C(O)C(C)C(O)C(C)C(OC(C)=O)C1C (stereo not shown) [Compound 1] | 0.12 µg/mL (≈ 0.124 µM) | 0.25 (≈ 0.259 µM) | 0.12 µg/mL (≈ 0.124 µM) | 0.12 µg/mL (≈ 0.124 µM)
10 | COC1C=COC2(C)Oc3c(C)c(O)c4c(O)c(c(C=NN5CCN(Cc6cc(C)no6)CC5)c(O)c4c3C2=O)NC(=O)C(C)=CC=CC(C)C(O)C(C)C(O)C(C)C(OC(C)=O)C1C (stereo not shown) [Compound 10] | ≦0.03 μg/mL | 0.06 (≈ 0.0664 µM) | ≦0.03 μg/mL | ≦0.03 μg/mL
11 | COC1C=COC2(C)Oc3c(C)c(O)c4c(O)c(c(C=NN5CCN(Cc6ccc(-c7ccccc7Cl)o6)CC5)c(O)c4c3C2=O)NC(=O)C(C)=CC=CC(C)C(O)C(C)C(O)C(C)C(OC(C)=O)C1C (stereo not shown) [Compound 22] | 0.5 µg/mL (≈ 0.5 µM) | 0.5 (≈ 0.5 µM) | 0.5 µg/mL (≈ 0.5 µM) | 0.25 µg/mL (≈ 0.25 µM)
12 | COC1C=COC2(C)Oc3c(C)c(O)c4c(O)c(c(C=NN5CCN(Cc6cc(-c7ccc(Cl)cc7)no6)CC5)c(O)c4c3C2=O)NC(=O)C(C)=CC=CC(C)C(O)C(C)C(O)C(C)C(OC(C)=O)C1C (stereo not shown) [Compound 2] | 0.5 µg/mL (≈ 0.5 µM) | 1 (≈ 0.999 µM) | 0.5 µg/mL (≈ 0.5 µM) | 0.5 µg/mL (≈ 0.5 µM)
13 | COC1C=COC2(C)Oc3c(C)c(O)c4c(O)c(c(C=NN5CCN(Cc6cc(-c7cccnc7)no6)CC5)c(O)c4c3C2=O)NC(=O)C(C)=CC=CC(C)C(O)C(C)C(O)C(C)C(OC(C)=O)C1C (stereo not shown) [Compound 14] | ≦0.03 μg/mL | 0.06 (≈ 0.062 µM) | ≦0.03 μg/mL | ≦0.03 μg/mL
14 | COC1C=COC2(C)Oc3c(C)c(O)c4c(O)c(c(C=NN5CCN(Cc6cc(-c7ccc(OCCCN(C)C)cc7)no6)CC5)c(O)c4c3C2=O)NC(=O)C(C)=CC=CC(C)C(O)C(C)C(O)C(C)C(OC(C)=O)C1C (stereo not shown) [Compound 17] | 0.12 µg/mL (≈ 0.112 µM) | 0.25 (≈ 0.234 µM) | 0.12 µg/mL (≈ 0.112 µM) | 0.12 µg/mL (≈ 0.112 µM)
15 | COC1C=COC2(C)Oc3c(C)c(O)c4c(O)c(c(C=NN5CCN(Cc6cc(CO)no6)CC5)c(O)c4c3C2=O)NC(=O)C(C)=CC=CC(C)C(O)C(C)C(O)C(C)C(OC(C)=O)C1C (stereo not shown) [Compound 11] | ≦0.03 μg/mL | 0.25 (≈ 0.272 µM) | 0.06 µg/mL (≈ 0.0652 µM) | ≦0.03 μg/mL
16 | COC1C=COC2(C)Oc3c(C)c(O)c4c(O)c(c(C=NN5CCN(Cc6ccc(-c7ccccc7)s6)CC5)c(O)c4c3C2=O)NC(=O)C(C)=CC=CC(C)C(O)C(C)C(O)C(C)C(OC(C)=O)C1C (stereo not shown) [Compound 20] | 1 µg/mL (≈ 1.02 µM) | 2 (≈ 2.04 µM) | 2 µg/mL (≈ 2.04 µM) | 2 µg/mL (≈ 2.04 µM)
17 | COC1C=COC2(C)Oc3c(C)c(O)c4c(O)c(c(C=NN5CCN(Cc6cc(-c7ccc(F)cc7)no6)CC5)c(O)c4c3C2=O)NC(=O)C(C)=CC=CC(C)C(O)C(C)C(O)C(C)C(OC(C)=O)C1C (stereo not shown) [Compound 5] | 0.12 µg/mL (≈ 0.122 µM) | 0.25 (≈ 0.254 µM) | 0.25 µg/mL (≈ 0.254 µM) | 0.12 µg/mL (≈ 0.122 µM)
18 | COC1C=COC2(C)Oc3c(C)c(O)c4c(O)c(c(C=NN5CCN(Cc6ccc(-c7ccc(Cl)cc7)o6)CC5)c(O)c4c3C2=O)NC(=O)C(C)=CC=CC(C)C(O)C(C)C(O)C(C)C(OC(C)=O)C1C (stereo not shown) [Compound 23] | 0.25 µg/mL (≈ 0.25 µM) | 0.5 (≈ 0.5 µM) | 0.25 µg/mL (≈ 0.25 µM) | 0.25 µg/mL (≈ 0.25 µM)
19 | COc1ccc(-c2cc(CN3CCN(N=Cc4c5c(O)c6c(O)c(C)c7c(c6c4O)C(=O)C(C)(OC=CC(OC)C(C)C(OC(C)=O)C(C)C(O)C(C)C(O)C(C)C=CC=C(C)C(=O)N5)O7)CC3)on2)cc1 (stereo not shown) [Compound 9] | 0.12 µg/mL (≈ 0.12 µM) | 0.25 (≈ 0.251 µM) | 0.25 µg/mL (≈ 0.251 µM) | 0.12 µg/mL (≈ 0.12 µM)

— patent US20090275594A1, “3-HYDRAZONE PIPERAZINYL RIFAMYCIN DERIVATIVES USEFUL AS ANTIMICROBIAL AGENTS” (priority 2008, published 2009)
